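Protocol summary: plate cells (96-well), add compound at 5 concentrations, incubate 48 h, interpolate endpoints linearly. Abbreviation: GI50, concentration required for 50% inhibition of growth.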 The source made the active and inactive calls. Cut-off read from the data, not from the text of the source: active = GI50 up to about 1.1 µM and inactive = higher.
Tests used:
Assay in all cases: inhibition of tumour cell growth, NCI panel, 48 h
Hs-578T = tested on: Hs-578T
NCI-H522 = tested on: NCI-H522
CCRF-CEM = tested on: CCRF-CEM
786-0 = tested on: 786-0
SK-OV-3 = tested on: SK-OV-3
RPMI-8226 = tested on: RPMI-8226
SF-268 = tested on: SF-268
ACHN = tested on: ACHN
KM12 = tested on: KM12
RXF 393 = tested on: RXF 393
OVCAR-4 = tested on: OVCAR-4
HCT-15 = tested on: HCT-15
HT-29 = tested on: HT-29
IGROV-1 = tested on: IGROV-1
UO-31 = tested on: UO-31
MDA-MB-231 = tested on: MDA-MB-231
NCI-H460 = tested on: NCI-H460
SNB-19 = tested on: SNB-19
OVCAR-3 = tested on: OVCAR-3
SF-539 = tested on: SF-539

Compound | GI50 (Hs-578T) | GI50 (NCI-H522) | GI50 (CCRF-CEM) | GI50 (786-0) | GI50 (SK-OV-3) | GI50 (RPMI-8226) | GI50 (SF-268) | GI50 (ACHN) | GI50 (KM12) | GI50 (RXF 393) | GI50 (OVCAR-4) | GI50 (HCT-15) [µM] | GI50 (HT-29) | GI50 (IGROV-1) | GI50 (UO-31) | GI50 (MDA-MB-231) | GI50 (NCI-H460) | GI50 (SNB-19) | GI50 (OVCAR-3) | GI50 (SF-539)
CC(C)(C)/C(=N\Nc1nc2ccccc2[nH]1)c1ccccn1 | > 100 µM (inactive) | 33.9 µM (inactive) | 46.1 µM (inactive) | > 100 µM (inactive) | > 100 µM (inactive) | 12.9 µM (inactive) | > 100 µM (inactive) | 81.3 µM (inactive) | 86.5 µM (inactive) | > 100 µM (inactive) | 53.7 µM (inactive) | 43.1 | 26.2 µM (inactive) | 80.7 µM (inactive) | 42.9 µM (inactive) | > 100 µM (inactive) | > 100 µM (inactive) | > 100 µM (inactive) | 24.3 µM (inactive) | > 100 µM (inactive)
S=C(/N=c1\sc(NCc2ccccc2)nc2sc3c(c12)CCN(N1CCc2c(sc4nc(NCc5ccccc5)s/c(=N\C(=S)NCc5ccccc5)c24)C1)C3)NCc1ccccc1 | 54.3 µM (inactive) | 37.7 µM (inactive) | 2.56 µM (inactive) | 9.64 µM (inactive) | 53.2 µM (inactive) | 14.6 µM (inactive) | 27.4 µM (inactive) | 29.1 µM (inactive) | 38 µM (inactive) | 36.1 µM (inactive) | 36.7 µM (inactive) | 22.3 | 22.6 µM (inactive) | 28 µM (inactive) | 15.4 µM (inactive) | 8.32 µM (inactive) | 54.8 µM (inactive) | 28.2 µM (inactive) | 20.1 µM (inactive) | 23.4 µM (inactive)
N#C/C(=C\c1cn(Cc2ccccc2)c2ccccc12)c1nn(-c2ccccc2)c(N)c1C#N | 25.6 µM (inactive) | 13.2 µM (inactive) | 19.1 µM (inactive) | 7.83 µM (inactive) | 15.2 µM (inactive) | 19.8 µM (inactive) | 24.9 µM (inactive) | 18.7 µM (inactive) | 26.1 µM (inactive) | 4.81 µM (inactive) | 3.24 µM (inactive) | 31.1 | 11.3 µM (inactive) | 12.8 µM (inactive) | 12.9 µM (inactive) | 4.13 µM (inactive) | 12 µM (inactive) | 13.6 µM (inactive) | 18.2 µM (inactive) | 3.11 µM (inactive)
COc1ccc2c(O)c(S(=O)(=O)c3ccc(C)cc3)c(=O)oc2c1OC | > 100 µM (inactive) | > 100 µM (inactive) | > 100 µM (inactive) | > 100 µM (inactive) | > 100 µM (inactive) | > 100 µM (inactive) | > 100 µM (inactive) | > 100 µM (inactive) | > 100 µM (inactive) | > 100 µM (inactive) | > 100 µM (inactive) | > 100 | > 100 µM (inactive) | > 100 µM (inactive) | > 100 µM (inactive) | > 100 µM (inactive) | > 100 µM (inactive) | > 100 µM (inactive) | > 100 µM (inactive) | > 100 µM (inactive)

Source: ChEMBL document CHEMBL1201862, “PubChem BioAssay data set” (2004)
